Results reported in PubChem BioAssay AID1963958 (Molecular Pharmacology Branch, DTP, NCI, 2024).
Blank lines part the entries; values can stand above or below the molecule they belong to.

Tested on: MDA-MB-231 multicell spheroids, viability
Assay: Anticancer human tumor MDA-MB-231 cell line growth inhibition [PI3K];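 note: spheroids exposed to agents for seven days before reading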;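 for viability, T/C: percent of vehicle control luminescence with DMSO treated spheroids as 100%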
Conditions: for IC50: curve of first compound; for viability, T/C: stronger effect = lower value
Outline: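 Viability of mixed-cell spheroids was determined after exposure to pairwise combinations, one partner being inavolisib, alpelisib, duvelisib or copanlisib. Highest tested concentration matched clinical Cmax where known and 10 microM where not, descending in half-log steps.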

[1] = second compound 0.0316 µM, first compound 0.0316 µM
[2] = second compound 0.0316 µM, first compound 0.1 µM
[3] = second compound 0.0316 µM, first compound 0.316 µM
[4] = second compound 0.0316 µM, first compound 1 µM
[5] = second compound 0.0316 µM, first compound 3.16 µM
[6] = second compound 0.0316 µM, first compound 10 µM
[7] = second compound 0.1 µM, first compound 0.0316 µM
[8] = second compound 0.1 µM, first compound 0.1 µM
[9] = second compound 0.1 µM, first compound 0.316 µM
[10] = second compound 0.1 µM, first compound 1 µM
[11] = second compound 0.1 µM, first compound 3.16 µM
[12] = second compound 0.1 µM, first compound 10 µM
[13] = second compound 0.316 µM, first compound 0.0316 µM
[14] = second compound 0.316 µM, first compound 0.1 µM
[15] = second compound 0.316 µM, first compound 0.316 µM
[16] = second compound 0.316 µM, first compound 1 µM
[17] = second compound 0.316 µM, first compound 3.16 µM
[18] = second compound 0.316 µM, first compound 10 µM
[19] = second compound 1 µM, first compound 0.0316 µM
[20] = second compound 1 µM, first compound 0.1 µM
[21] = second compound 1 µM, first compound 0.316 µM
[22] = second compound 1 µM, first compound 1 µM
[23] = second compound 1 µM, first compound 3.16 µM
[24] = second compound 1 µM, first compound 10 µM
[25] = second compound 3.16 µM, first compound 0.0316 µM
[26] = second compound 3.16 µM, first compound 0.1 µM
[27] = second compound 3.16 µM, first compound 0.316 µM
[28] = second compound 3.16 µM, first compound 1 µM
[29] = second compound 3.16 µM, first compound 3.16 µM
[30] = second compound 3.16 µM, first compound 10 µM
[31] = second compound 10 µM, first compound 0.0316 µM
[32] = second compound 10 µM, first compound 0.1 µM
[33] = second compound 10 µM, first compound 0.316 µM
[34] = second compound 10 µM, first compound 1 µM
[35] = second compound 10 µM, first compound 3.16 µM
[36] = second compound 10 µM, first compound 10 µM

IC50 (second compound 0.0316 µM): > 10000 nM
IC50 (second compound 0.1 µM): > 10000 nM
IC50 (second compound 0.316 µM): > 10000 nM
IC50 (second compound 1 µM): 6630 nM
IC50 (second compound 3.16 µM): 1940 nM
IC50 (second compound 10 µM): 38.7 nM
SMILES: C#Cc1c(F)ccc2cc(O)cc(-c3ncc4c(N5CC6CCC(C5)N6)nc(OCC56CCCN5CC(F)C6)nc4c3F)c12 (stereo not drawn) + CC(Nc1ncnc2nc[nH]c12)c1cc2cccc(Cl)c2c(=O)n1-c1ccccc1
viability, T/C [1]: 109%
viability, T/C [2]: 96.2%
viability, T/C [3]: 103%
viability, T/C [4]: 94.6%
viability, T/C [5]: 89.9%
viability, T/C [6]: 61.1%
viability, T/C [7]: 101%
viability, T/C [8]: 99.1%
viability, T/C [9]: 90.6%
viability, T/C [10]: 88.3%
viability, T/C [11]: 79.5%
viability, T/C [12]: 57.7%
viability, T/C [13]: 99.2%
viability, T/C [14]: 89%
viability, T/C [15]: 87.6%
viability, T/C [16]: 86.4%
viability, T/C [17]: 77.5%
viability, T/C [18]: 53.2%
viability, T/C [19]: 75.5%
viability, T/C [20]: 83.2%
viability, T/C [21]: 90.2%
viability, T/C [22]: 72.8%
viability, T/C [23]: 62.4%
viability, T/C [24]: 43.5%
viability, T/C [25]: 65.5%
viability, T/C [26]: 62.8%
viability, T/C [27]: 56.6%
viability, T/C [28]: 56.5%
viability, T/C [29]: 46.7%
viability, T/C [30]: 33.1%
viability, T/C [31]: 51.4%
viability, T/C [32]: 46.8%
viability, T/C [33]: 44.4%
viability, T/C [34]: 39.8%
viability, T/C [35]: 35.4%
viability, T/C [36]: 26.4%

IC50 (second compound 0.0316 µM): 31.6 nM
IC50 (second compound 0.1 µM): 31.6 nM
IC50 (second compound 0.316 µM): 31.6 nM
IC50 (second compound 1 µM): < 31.6 nM
IC50 (second compound 3.16 µM): < 31.6 nM
IC50 (second compound 10 µM): < 31.6 nM
SMILES: CC1(C)CCC(Nc2ncc(C(F)(F)F)c(-c3c[nH]c4c(P(C)(C)=O)c(C#N)ccc34)n2)CN1 (stereo not drawn) + CC(Nc1ncnc2nc[nH]c12)c1cc2cccc(Cl)c2c(=O)n1-c1ccccc1
viability, T/C [1]: 46.4%
viability, T/C [2]: 37.8%
viability, T/C [3]: 41.4%
viability, T/C [4]: 53.5%
viability, T/C [5]: 60.6%
viability, T/C [6]: 5.54%
viability, T/C [7]: 46.3%
viability, T/C [8]: 38.5%
viability, T/C [9]: 40.7%
viability, T/C [10]: 51.6%
viability, T/C [11]: 55.6%
viability, T/C [12]: 5.27%
viability, T/C [13]: 45.7%
viability, T/C [14]: 39.4%
viability, T/C [15]: 42.5%
viability, T/C [16]: 48.6%
viability, T/C [17]: 54.2%
viability, T/C [18]: 6.2%
viability, T/C [19]: 43.9%
viability, T/C [20]: 34.7%
viability, T/C [21]: 38.6%
viability, T/C [22]: 49.4%
viability, T/C [23]: 49.6%
viability, T/C [24]: 4.82%
viability, T/C [25]: 39.8%
viability, T/C [26]: 37%
viability, T/C [27]: 42.2%
viability, T/C [28]: 44.9%
viability, T/C [29]: 36%
viability, T/C [30]: 4.74%
viability, T/C [31]: 38.4%
viability, T/C [32]: 34.6%
viability, T/C [33]: 36%
viability, T/C [34]: 33.2%
viability, T/C [35]: 35.5%
viability, T/C [36]: 3.53%

IC50 (second compound 0.00316 µM): > 10000 nM
IC50 (second compound 0.01 µM): > 10000 nM
IC50 (second compound 0.0316 µM): > 10000 nM
IC50 (second compound 0.1 µM): < 31.6 nM
IC50 (second compound 0.316 µM): < 31.6 nM
IC50 (second compound 1 µM): < 31.6 nM
SMILES: CNC(=O)c1ccc(N2C(=S)N(c3ccc(C#N)c(C(F)(F)F)c3)C(=O)C2(C)C)cc1F + COc1c(OCCCN2CCOCC2)ccc2c3n(c(=NC(=O)c4cnc(N)nc4)nc12)CCN3
viability, T/C (second compound 0.00316 µM, first compound 0.0316 µM): 98.3%
viability, T/C (second compound 0.00316 µM, first compound 0.1 µM): 96.5%
viability, T/C (second compound 0.00316 µM, first compound 0.316 µM): 98.9%
viability, T/C (second compound 0.00316 µM, first compound 1 µM): 97.6%
viability, T/C (second compound 0.00316 µM, first compound 3.16 µM): 95.9%
viability, T/C (second compound 0.00316 µM, first compound 10 µM): 81.3%
viability, T/C (second compound 0.01 µM, first compound 0.0316 µM): 82.2%
viability, T/C (second compound 0.01 µM, first compound 0.1 µM): 78.5%
viability, T/C (second compound 0.01 µM, first compound 0.316 µM): 82.5%
viability, T/C (second compound 0.01 µM, first compound 1 µM): 83.7%
viability, T/C (second compound 0.01 µM, first compound 3.16 µM): 72.7%
viability, T/C (second compound 0.01 µM, first compound 10 µM): 64.2%
viability, T/C [1]: 63%
viability, T/C [2]: 64.5%
viability, T/C [3]: 64.8%
viability, T/C [4]: 61.7%
viability, T/C [5]: 59%
viability, T/C [6]: 50.9%
viability, T/C [7]: 50.9%
viability, T/C [8]: 46.2%
viability, T/C [9]: 48.9%
viability, T/C [10]: 48.1%
viability, T/C [11]: 46.9%
viability, T/C [12]: 38.8%
viability, T/C [13]: 34.5%
viability, T/C [14]: 34.4%
viability, T/C [15]: 34.8%
viability, T/C [16]: 34.6%
viability, T/C [17]: 32.6%
viability, T/C [18]: 28.3%
viability, T/C [19]: 25.6%
viability, T/C [20]: 24.8%
viability, T/C [21]: 25%
viability, T/C [22]: 24.8%
viability, T/C [23]: 25.1%
viability, T/C [24]: 22.9%

IC50 (second compound 0.00316 µM): 184 nM
IC50 (second compound 0.01 µM): 40.7 nM
IC50 (second compound 0.0316 µM): < 9.49 nM
IC50 (second compound 0.1 µM): < 9.49 nM
IC50 (second compound 0.316 µM): < 9.49 nM
IC50 (second compound 1 µM): < 9.49 nM
SMILES: Cn1cnc2c(F)c(Nc3ccc(Br)cc3Cl)c(C(=O)NOCCO)cc21 + COc1c(OCCCN2CCOCC2)ccc2c3n(c(=NC(=O)c4cnc(N)nc4)nc12)CCN3
viability, T/C (second compound 0.00316 µM, first compound 0.00949 µM): 60%
viability, T/C (second compound 0.00316 µM, first compound 0.03 µM): 56.6%
viability, T/C (second compound 0.00316 µM, first compound 0.0949 µM): 52.2%
viability, T/C (second compound 0.00316 µM, first compound 0.3 µM): 47.5%
viability, T/C (second compound 0.00316 µM, first compound 0.949 µM): 41.4%
viability, T/C (second compound 0.00316 µM, first compound 3 µM): 29.7%
viability, T/C (second compound 0.01 µM, first compound 0.00949 µM): 62.1%
viability, T/C (second compound 0.01 µM, first compound 0.03 µM): 46.6%
viability, T/C (second compound 0.01 µM, first compound 0.0949 µM): 42.2%
viability, T/C (second compound 0.01 µM, first compound 0.3 µM): 40.4%
viability, T/C (second compound 0.01 µM, first compound 0.949 µM): 41.7%
viability, T/C (second compound 0.01 µM, first compound 3 µM): 23.6%
viability, T/C (second compound 0.0316 µM, first compound 0.00949 µM): 45%
viability, T/C (second compound 0.0316 µM, first compound 0.03 µM): 43.4%
viability, T/C (second compound 0.0316 µM, first compound 0.0949 µM): 38.9%
viability, T/C (second compound 0.0316 µM, first compound 0.3 µM): 33.1%
viability, T/C (second compound 0.0316 µM, first compound 0.949 µM): 28.8%
viability, T/C (second compound 0.0316 µM, first compound 3 µM): 12.9%
viability, T/C (second compound 0.1 µM, first compound 0.00949 µM): 33.7%
viability, T/C (second compound 0.1 µM, first compound 0.03 µM): 30.3%
viability, T/C (second compound 0.1 µM, first compound 0.0949 µM): 27.3%
viability, T/C (second compound 0.1 µM, first compound 0.3 µM): 27.1%
viability, T/C (second compound 0.1 µM, first compound 0.949 µM): 21%
viability, T/C (second compound 0.1 µM, first compound 3 µM): 7.54%
viability, T/C (second compound 0.316 µM, first compound 0.00949 µM): 24.3%
viability, T/C (second compound 0.316 µM, first compound 0.03 µM): 18.7%
viability, T/C (second compound 0.316 µM, first compound 0.0949 µM): 15.8%
viability, T/C (second compound 0.316 µM, first compound 0.3 µM): 14.4%
viability, T/C (second compound 0.316 µM, first compound 0.949 µM): 12.2%
viability, T/C (second compound 0.316 µM, first compound 3 µM): 5.36%
viability, T/C (second compound 1 µM, first compound 0.00949 µM): 17.7%
viability, T/C (second compound 1 µM, first compound 0.03 µM): 14.2%
viability, T/C (second compound 1 µM, first compound 0.0949 µM): 12.5%
viability, T/C (second compound 1 µM, first compound 0.3 µM): 9.99%
viability, T/C (second compound 1 µM, first compound 0.949 µM): 8.63%
viability, T/C (second compound 1 µM, first compound 3 µM): 4.84%
